In the supplement of paper PMC10307832:

Key:
Assay in all cases: relative viability (nuclei count vs DMSO), 5 days (fraction); higher = more cells survive
RAF265 + Luminespib = compound: Cn1c(Nc2ccc(C(F)(F)F)cc2)nc2cc(Oc3ccnc(-c4ncc(C(F)(F)F)[nH]4)c3)ccc21 [RAF265] + CCNC(=O)c1noc(-c2cc(C(C)C)c(O)cc2O)c1-c1ccc(CN2CCOCC2)cc1 [Luminespib] (partner 0.01 µM)
Summary of the method: (§1)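 One day after seeding in 1536-well plates, lung cancer cell lines were dosed by pin tool. Dosing was either single-drug or a fixed anchor-drug dose plus five library-drug doses (not always all listed) in √10 steps. After 5 days, nuclei were stained in one fix-and-stain step and counted on 4× images, and relative viability is the nuclei count of treated wells over that of vehicle wells, given as the median of duplicate plates.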

RAF265 + Crizotinib = compound: Cn1c(Nc2ccc(C(F)(F)F)cc2)nc2cc(Oc3ccnc(-c4ncc(C(F)(F)F)[nH]4)c3)ccc21 [RAF265] + C[C@@H](Oc1cc(-c2cnn(C3CCNCC3)c2)cnc1N)c1c(Cl)ccc(F)c1Cl [Crizotinib] (partner 1 µM)
Summary of the method: as §1

Doramapimod + Crizotinib = compound: Cc1ccc(-n2nc(C(C)(C)C)cc2NC(=O)Nc2ccc(OCCN3CCOCC3)c3ccccc23)cc1 [Doramapimod] + C[C@@H](Oc1cc(-c2cnn(C3CCNCC3)c2)cnc1N)c1c(Cl)ccc(F)c1Cl [Crizotinib] (partner 1 µM)
Summary of the method: as §1

RAF265 + Pemetrexed = compound: Cn1c(Nc2ccc(C(F)(F)F)cc2)nc2cc(Oc3ccnc(-c4ncc(C(F)(F)F)[nH]4)c3)ccc21 [RAF265] + Nc1nc2[nH]cc(CCc3ccc(C(=O)N[C@@H](CCC(=O)O)C(=O)O)cc3)c2c(=O)[nH]1 [Pemetrexed] (partner 0.2 µM)
Summary of the method: as §1

| Cell Line | relative viability (RAF265 + Luminespib; first compound 0.01 µM) | relative viability (RAF265 + Luminespib; first compound 0.03162 µM) | relative viability (RAF265 + Luminespib; first compound 0.1 µM) | relative viability (RAF265 + Luminespib; first compound 0.3162 µM) | relative viability (RAF265 + Luminespib; first compound 1 µM) | relative viability (RAF265 + Crizotinib; first compound 0.01 µM) | relative viability (RAF265 + Crizotinib; first compound 0.03162 µM) | relative viability (RAF265 + Crizotinib; first compound 0.1 µM) | relative viability (RAF265 + Crizotinib; first compound 0.3162 µM) | relative viability (RAF265 + Crizotinib; first compound 1 µM) | relative viability (Doramapimod + Crizotinib; first compound 0.02 µM) | relative viability (Doramapimod + Crizotinib; first compound 0.06325 µM) | relative viability (Doramapimod + Crizotinib; first compound 0.2 µM) | relative viability (Doramapimod + Crizotinib; first compound 2 µM) | relative viability (RAF265 + Pemetrexed; first compound 0.01 µM) | relative viability (RAF265 + Pemetrexed; first compound 0.03162 µM) | relative viability (RAF265 + Pemetrexed; first compound 0.1 µM) | relative viability (RAF265 + Pemetrexed; first compound 0.3162 µM) | relative viability (RAF265 + Pemetrexed; first compound 1 µM) | relative viability (Doramapimod + Crizotinib; first compound 0.6325 µM) |
| --- | --- | --- | --- | --- | --- | --- | --- | --- | --- | --- | --- | --- | --- | --- | --- | --- | --- | --- | --- | --- |
| ChaGo-K-1 | 0.722 | 0.666 | 0.575 | 0.545 | 0.396 | 1.15 | 1.15 | 1.18 | 1.05 | 0.792 | 1.15 | 1.16 | 1.17 | 1.11 | 0.262 | 0.273 | 0.248 | 0.262 | 0.325 |  |
| EBC-1 |  |  |  |  |  | 0.181 | 0.194 | 0.191 | 0.26 | 0.219 | 0.161 | 0.196 | 0.162 | 0.188 |  |  |  |  |  | 0.184 |
| EKVX | 0.837 | 0.918 | 0.984 | 0.598 | 0.791 | 0.909 | 0.625 | 0.998 | 0.805 | 0.773 | 0.986 | 0.98 | 0.822 | 0.918 | 0.373 | 0.44 | 0.456 | 0.255 | 0.358 | 0.951 |
| EMC-BAC-2 | 1.2 | 0.998 | 1.01 | 0.819 | 0.357 | 0.747 | 0.685 | 0.617 | 0.501 | 0.234 | 0.716 | 0.758 | 0.792 | 0.699 | 0.432 | 0.406 | 0.427 | 0.347 | 0.258 | 0.771 |
| EPLC-272H | 0.169 | 0.224 | 0.333 | 0.138 | 0.177 | 0.765 | 0.868 | 1.32 | 0.472 | 0.434 | 0.942 | 0.975 | 1.17 | 0.972 | 0.327 | 0.319 | 0.406 | 0.213 | 0.177 | 0.974 |
| H3255 | 0.767 | 0.876 | 0.953 |  | 0.634 | 0.928 | 0.83 | 1.12 |  | 0.671 | 0.919 | 0.785 | 0.893 | 0.852 | 0.569 | 0.609 | 0.54 |  | 0.569 | 0.851 |
| HARA | 0.64 | 0.627 | 0.476 | 0.509 | 0.165 | 1.1 | 0.965 | 1.03 | 0.906 | 0.652 | 1.27 | 0.966 | 0.965 | 0.992 | 0.269 | 0.275 | 0.239 | 0.218 | 0.259 | 1.08 |
| HCC-15 | 0.27 | 0.229 | 0.388 | 0.159 | 0.173 | 0.83 | 0.817 | 0.836 | 0.566 | 0.499 | 0.836 | 0.731 | 0.838 | 0.718 | 0.232 | 0.232 | 0.231 | 0.235 | 0.23 | 0.887 |
| HCC-44 | 1.17 | 0.986 | 1.06 | 1.05 | 1.05 | 0.791 | 0.679 | 0.854 | 0.83 | 0.772 | 0.884 | 0.856 | 0.755 | 0.772 | 0.647 | 0.597 | 0.655 | 0.622 | 0.653 | 0.771 |
